Measurements from PubChem BioAssay (NCI).
Values joined by “and” are separate entries in the source; they are usually repeats but may differ in a detail not shown here. Equal entries are not always repeated.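 Dose response: 5 concentrations. Exposure: 48 h. Format: 96-well plates. Endpoint: linear interpolation; highest concentration if not reached. Here, GI50 denotes the concentration required for 50% inhibition of growth. TGI is the concentration that stops growth completely.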

Columns and labels:
Assay in all cases: DTP human tumour cell line panel, 48 h
[1] = test system: HCC-2998 colon
[2] = test system: KM12 colon
[3] = test system: MOLT-4 leukemia
[4] = test system: OVCAR-5 ovarian
[5] = test system: PC-3 prostate
[6] = test system: RXF 393 renal
[7] = test system: SW-620 colon
[8] = test system: U251 CNS
[9] = test system: UACC-257 melanoma
[10] = test system: OVCAR-4 ovarian

Row | Compound | TGI [1] | TGI [2] [µM] | TGI [3] [µM] | TGI [4] | TGI [5] [µM] | TGI [6] [µM] | TGI [7] [µM] | TGI [8] | TGI [9] | TGI [10] [µM] | GI50 [3] [µM] | GI50 [1] [µM] | GI50 [2] [µM] | GI50 [10] [µM] | GI50 [4] [µM] | GI50 [5] [µM] | GI50 [6] [µM] | GI50 [7] [µM] | GI50 [8] [µM] | GI50 [9] [µM]
1 | C=CCn1c(=O)c(Br)nn(CCOCP(=O)(OCC)OCC)c1=O | > 100 µM | > 100 | > 100 | > 100 µM | > 100 | > 100 | > 100 | > 100 µM | > 100 µM |  |  |  |  |  |  |  |  |  |  | 
2 | Nc1nc(SCCNC(=O)CCc2ccc(O)c(I)c2)nc2c1ncn2C1OC(CO)C(O)C1O (stereo unspecified) | > 100 µM | > 100 | > 100 | > 100 µM |  | > 100 | > 100 | > 100 µM | > 100 µM | > 100 |  |  |  |  |  |  |  |  |  | 
3 | CC(=O)OCC1=CC2OC(=O)C3=COC(OC4OC(CO)C(O)C(O)C4O)C1C32 (stereo unspecified) | > 100 µM | > 100 |  | > 100 µM | > 100 |  | > 100 | > 100 µM | > 100 µM | > 100 |  |  |  |  |  |  |  |  |  | 
4 | N#Cc1ccc([N+](=O)[O-])cc1NC(N)=S | > 100 µM | > 100 | > 100 | > 100 µM |  |  | > 100 | > 100 µM |  |  |  |  |  |  |  |  |  |  |  | 
5 | CC[C@@]1(O)C[C@H](OC2CC(N(C)C)C(OC3CC(O)C(OC4CCC(=O)C(C)O4)C(C)O3)C(C)O2)c2c(cc3c(c2O)C(=O)c2c(O)cccc2C3=O)C1C(=O)OC (stereo partly specified) | 0.598 µM and 1.88 µM |  | 0.655 | 3.11 µM and 1.56 µM | 1.47 | 0.157 |  | 2.72 µM and 9.24 µM | 0.202 µM and 0.993 µM | 0.117 | 0.00383 |  |  |  |  |  |  |  |  | 
6 | CC(C)CNCCc1ccccn1 | > 100 µM | > 100 |  | > 100 µM | > 100 | > 100 | > 100 | > 100 µM | > 100 µM | > 100 |  |  |  |  |  |  |  |  |  | 
7 | O=c1oc2cc(O)ccc2c2oc3cc(O)ccc3c12 | > 118 µM | > 125 | 83.3 | > 125 µM |  | 124 | > 125 | 93.5 µM | 124 µM | > 125 |  |  |  |  |  |  |  |  |  | 
8 | CC1=C(SCCO)C(=O)c2ccccc2C1=O | 30.4 µM | 26.8 | > 100 | 33.6 µM | 25.1 | 26.3 | 33.1 | 26.1 µM | 25.8 µM | 15.3 |  |  |  |  |  |  |  |  |  | 
9 | CC(C)C1=CC2=CC[C@@H]3[C@](C)(CCC[C@@]3(C)C(=O)O)[C@H]2CC1 | > 100 µM | > 100 | > 75.7 | > 100 µM |  | 97.4 | > 100 | > 100 µM | > 100 µM | > 100 |  |  |  |  |  |  |  |  |  | 
10 | COc1cc2c3c(n(CCCn4cncn4)c(=O)c2cc1OC)-c1cc2c(cc1C3=O)OCO2 | > 100 µM | > 100 | 0.242 | > 100 µM | > 100 | > 100 | > 100 | 31.8 µM | > 100 µM | > 100 | < 0.01 | 16.6 | > 100 | > 100 | > 100 | 39.8 | 11.9 | 1.08 | < 0.0449 | > 100
11 | C1=CC=C2NCCc3cccc(c3)CCNC3=CC=CC=CC3=NCCCCCCN=C2C=C1 |  | 47.3 | 38.3 | 47.8 µM |  | 32.4 | 80.7 | > 100 µM | 41.8 µM | 39 |  |  |  |  |  |  |  |  |  | 
12 | CCCCC(=O)c1c(O)ccc2c(C)cc(=O)oc12 | > 100 µM | > 100 | > 100 | > 100 µM | > 100 | > 100 | > 100 | > 100 µM | > 100 µM | > 100 |  |  |  |  |  |  |  |  |  | 
13 | CC(=O)OCCCCN1C(=O)CSc2ccccc21 |  | > 100 | > 100 | > 100 µM | > 100 | > 100 | > 100 | > 100 µM | > 100 µM | > 100 |  |  |  |  |  |  |  |  |  | 
14 | O=C1CCCCN1 | > 1120 µM | > 1120 | > 1120 | > 1120 µM |  | > 1120 | > 1120 | > 1120 µM | > 1120 µM | > 1120 |  |  |  |  |  |  |  |  |  | 
15 | O=Cc1ccccc1CCn1c(=O)c2cc3c(=O)n(CCc4ccccc4C=O)c(=O)c3cc2c1=O |  | > 100 | > 100 |  |  | > 100 | > 100 | > 100 µM | > 100 µM | > 100 |  |  |  |  |  |  |  |  |  | 
